In patent US20100286136A1, “DIHYDRONAPHTHYRIDINYL AND RELATED COMPOUNDS FOR USE IN TREATING OPHTHALMOLOGICAL DISORDERS” (priority 2009, published 2010) one finds IC50 data, which are given here for 22 molecules.

Some results are limits rather than exact numbers.

This test has as its target T1, CCR2b (Homo sapiens, UniProt P41597).
T1 construct: host or cells: AequoScreen CCR2b cells
T1 sequence (P41597 1-360 isoform P41597-2): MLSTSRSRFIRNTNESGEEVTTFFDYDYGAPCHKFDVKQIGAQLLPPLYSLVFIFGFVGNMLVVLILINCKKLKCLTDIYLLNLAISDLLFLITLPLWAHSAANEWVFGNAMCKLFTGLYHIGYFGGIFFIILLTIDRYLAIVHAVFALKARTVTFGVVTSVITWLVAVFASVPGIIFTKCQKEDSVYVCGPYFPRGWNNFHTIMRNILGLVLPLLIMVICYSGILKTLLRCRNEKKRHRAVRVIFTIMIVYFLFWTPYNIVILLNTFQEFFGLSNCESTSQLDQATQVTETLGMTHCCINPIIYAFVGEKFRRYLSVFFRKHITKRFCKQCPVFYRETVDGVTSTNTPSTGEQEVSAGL
The test is described as follows: AequoScreen CCR2b calcium flux assay, antagonist mode against reference agonist MCP-1. It is filed as cell-based. Conditions: AequoScreen CCR2b (FAST-060A) cells; inhibition of reference agonist MCP-1 at its EC80; read-out: IC50 (μM) Ca^++flux. As for the experimental part:
The biological activity of the compounds described herein can be evaluated using assays known in the art, such as the AequoScreen™ assay.
AequoScreen™ CCR2b (FAST-060A) cells grown to mid-log phase in culture media without antibiotics are detached with PBS-EDTA, centrifuged and resuspended in assay buffer (DMEM/HAM's F12 with HEPES, without phenol red+0.1% BSA protease free) at a concentration of 1×10^6 cells/mL. Cells are incubated at room temperature for at least 4 hours with coelenterazine h. Dose response curves are performed before testing. The reference agonist is MCP-1.
For agonist testing, 50 μL of cell suspension is mixed with 50 μL of test compound in a 96-well plate. The resulting emission of light is recorded using a Hamamatsu Functional Drug Screening System 6000 (FDSS 6000).
Following an incubation of 15 minutes after the first injection, 100 μL of the resulting cell suspension containing the test compound is mixed with 100 μL of the reference agonist in the 96 well test plate. The resulting emission of light is recorded using the same luminometer as for agonist testing.
Agonist activity of a test compound can be expressed as a percentage of the activity of the reference agonist at its EC100 concentration. Antagonist activity of a test compound can be expressed as a percentage of the inhibition of reference agonist activity at its EC80 concentration.
Background: Calcium assays in cells follow changes in intracellular calcium, usually with a dye or a luminescent sensor.
The IC50 is the concentration that gives 50% inhibition. On to `CC(c1ccc2c(c1)n(C)c(=O)n2C)N1CCC(CC2CC2)(C(=O)N2CCc3ncc(C(F)(F)F)cc3C2)C1` (stereo not shown) [Example 16, 5-(1-(3-(Cyclopropylmethyl)-3-(3-(trifluoromethyl)-5,6,7,8-tetrahydro-1,6-naphthyridine-6-carbonyl)pyrrolidin-1-yl)ethyl)-1,3-dimethyl-1H-benzo[d]imidazol-2(3H)-one], for which the IC50 was over 1 µM.
The value for `O=C(N1CCc2ncc(C(F)(F)F)cc2C1)C1(CC2CC2)CCN(Cc2ccc3[nH]ncc3c2)C1` (stereo not shown) [Example 17, (1-((1H-Indazol-5-yl)methyl)-3-(cyclopropylmethyl)pyrrolidin-3-yl)(3-(trifluoromethyl)-7,8-dihydro-1,6-naphthyridin-6(5H)-yl)methanone] was over 1 µM; that for `Cn1c(=O)ccc2cc(CN3CCC(CC4CC4)(C(=O)N4CCc5ncc(C(F)(F)F)cc5C4)C3)ccc21` (stereo not shown) [Example 22, 6-((3-(Cyclopropylmethyl)-3-(3-(trifluoromethyl)-5,6,7,8-tetrahydro-1,6-naphthyridine-6-carbonyl)pyrrolidin-1-yl)methyl)-1-methylquinolin-2(1H)-one] was over 1 µM; that for `Cn1c(=O)oc2ccc(CN3CCC(CC4CC4)(C(=O)N4CCc5ncc(C(F)(F)F)cc5C4)C3)cc21` (stereo not shown) [Example 23, 5-((3-(Cyclopropylmethyl)-3-(3-(trifluoromethyl)-5,6,7,8-tetrahydro-1,6-naphthyridine-6-carbonyl)pyrrolidin-1-yl)methyl)-3-methylbenzo[d]oxazol-2(3H)-one] was under 0.2 µM.
Turning to `CC(C)CC1(C(=O)N2CCc3ncc(C(F)(F)F)cc3C2)CCN(Cc2ccc3oc(=O)n(C)c3c2)C1` (stereo not shown) [Example 24, 5-((3-Isobutyl-3-(3-(trifluoromethyl)-5,6,7,8-tetrahydro-1,6-naphthyridine-6-carbonyl)pyrrolidin-1-yl)methyl)-3-methylbenzo[d]oxazol-2(3H)-one], the IC50 is under 0.2 µM.
Take `COCC1(C(=O)N2CCc3ncc(C(F)(F)F)cc3C2)CCN(Cc2ccc3ccc(=O)n(C)c3c2)C1` (stereo not shown) [Example 25, 7-((3-(Methoxymethyl)-3-(3-(trifluoromethyl)-5,6,7,8-tetrahydro-1,6-naphthyridine-6-carbonyl)pyrrolidin-1-yl)methyl)-1-methylquinolin-2(1H)-one]: the half-maximal inhibitory concentration (IC50) was under 0.2 µM.
For the molecule `COCC1(C(=O)N2CCc3ncc(C(F)(F)F)cc3C2)CCN(Cc2ccc3sc(=O)n(C)c3c2)C1` (stereo not shown) [Example 28, 5-((3-(Methoxymethyl)-3-(3-(trifluoromethyl)-5,6,7,8-tetrahydro-1,6-naphthyridine-6-carbonyl)pyrrolidin-1-yl)methyl)-3-methylbenzo[d]thiazol-2(3H)-one], the 50% inhibitory concentration (IC50) was under 0.2 µM.
Consider `COCC1(C(=O)N2CCc3ncc(C(F)(F)F)cc3C2)CCN(C(C)c2ccc3c(c2)n(C)c(=O)n3C)C1` (stereo not shown) [Example 29, 5-(1-(3-(Methoxymethyl)-3-(3-(trifluoromethyl)-5,6,7,8-tetrahydro-1,6-naphthyridine-6-carbonyl)pyrrolidin-1-yl)ethyl)-1,3-dimethyl-1H-benzo[d]imidazol-2(3H)-one], for which the IC50 was under 0.2 µM.
In the case of `COCC1(C(=O)N2CCc3ncc(C(F)(F)F)cc3C2)CCN(Cc2ccc3c(c2)N(C)C(=O)CO3)C1` (stereo not shown) [Example 32, 6-((3-(Methoxymethyl)-3-(3-(trifluoromethyl)-5,6,7,8-tetrahydro-1,6-naphthyridine-6-carbonyl)pyrrolidin-1-yl)methyl)-4-methyl-2H-benzo[b][1,4]oxazin-3(4H)-one], the IC50 is under 0.2 µM.
Take `COCC1(C(=O)N2CCc3ncc(C(F)(F)F)cc3C2)CCN(C(C)c2ccc3c(c2)N(C)C(=O)CO3)C1` (stereo not shown) [Example 33, 6-(1-(3-(Methoxymethyl)-3-(3-(trifluoromethyl)-5,6,7,8-tetrahydro-1,6-naphthyridine-6-carbonyl)pyrrolidin-1-yl)ethyl)-4-methyl-2H-benzo[b][1,4]oxazin-3(4H)-one]: the half-inhibitory concentration (IC50) was under 0.2 µM.
Consider `COCC1(C(=O)N2CCc3ncc(C(F)(F)F)cc3C2)CCN(C(C)c2ccc3oc(=O)n(C)c3c2)C1` (stereo not shown) [Example 34, 5-(1-(3-(Methoxymethyl)-3-(3-(trifluoromethyl)-5,6,7,8-tetrahydro-1,6-naphthyridine-6-carbonyl)pyrrolidin-1-yl)ethyl)-3-methylbenzo[d]oxazol-2(3H)-one], for which the IC50 is under 0.2 µM.
Regarding `COCC1(C(=O)N2CCc3ncc(C(F)(F)F)cc3C2)CCN(C2CCC(O)(C3CC3)CC2)C1` (stereo not shown) [Example 35], the IC50 lay in the range of 0.2 to 1 µM.
The figure for `COCC1(C(=O)N2CCc3ncc(C(F)(F)F)cc3C2)CCN(Cc2cc3c(ccc(=O)n3C)cc2Cl)C1` (stereo not shown) [Example 36, 6-Chloro-7-((3-(methoxymethyl)-3-(3-(trifluoromethyl)-5,6,7,8-tetrahydro-1,6-naphthyridine-6-carbonyl)pyrrolidin-1-yl)methyl)-1-methylquinolin-2(1H)-one] is 0.2 to 1 µM; for `COCC1(C(=O)N2CCc3ncc(C(F)(F)F)cc3C2)CCN(Cc2cc3c(cc2Cl)oc(=O)n3C)C1` (stereo not shown) [Example 37, 6-Chloro-5-((3-(methoxymethyl)-3-(3-(trifluoromethyl)-5,6,7,8-tetrahydro-1,6-naphthyridine-6-carbonyl)pyrrolidin-1-yl)methyl)-3-methylbenzo[d]oxazol-2(3H)-one] it is under 0.2 µM; for `COCC1(C(=O)N2CCc3ncc(C(F)(F)F)cc3C2)CCN(Cc2ccc3c(c2)n(C)c(=O)n3C)C1` (stereo not shown) [Example 38, 5-((3-(Methoxymethyl)-3-(3-(trifluoromethyl)-5,6,7,8-tetrahydro-1,6-naphthyridine-6-carbonyl)pyrrolidin-1-yl)methyl)-1,3-dimethyl-1H-benzo[d]imidazol-2(3H)-one] it is over 1 µM.
For the molecule `COCC1(C(=O)N2CCc3ncc(C(F)(F)F)cc3C2)CCN(Cc2ccc3oc(=O)n(C)c3c2)C1` (stereo not shown) [Example 39, 5-((3-(Methoxymethyl)-3-(3-(trifluoromethyl)-5,6,7,8-tetrahydro-1,6-naphthyridine-6-carbonyl)pyrrolidin-1-yl)methyl)-3-methylbenzo[d]oxazol-2(3H)-one], the IC50 is under 0.2 µM.
As to `CCOCC1(C(=O)N2CCc3ncc(C(F)(F)F)cc3C2)CCN(Cc2ccc3oc(=O)n(C)c3c2)C1` (stereo not shown) [Example 45, 5-((3-(Ethoxymethyl)-3-(3-(trifluoromethyl)-5,6,7,8-tetrahydro-1,6-naphthyridine-6-carbonyl)pyrrolidin-1-yl)methyl)-3-methylbenzo[d]oxazol-2(3H)-one], the IC50 is under 0.2 µM.
As for `COCC1(C(=O)N2CCc3ccc(C(F)(F)F)cc3C2)CCN(Cc2ccc3oc(=O)n(C)c3c2)C1` (stereo not shown) [Example 46, 5-((3-(methoxymethyl)-3-(7-(trifluoromethyl)-1,2,3,4-tetrahydroisoquinoline-2-carbonyl)pyrrolidin-1-yl)methyl)-3-methylbenzo[d]oxazol-2(3H)-one], the 50% inhibitory concentration (IC50) was under 0.2 µM.
The figure for `CC(C)C1(C(=O)N2CCc3ncc(C(F)(F)F)cc3C2)CCN(Cc2ccc3oc(=O)n(C)c3c2)C1` (stereo not shown) [Example 47, 5-((3-isopropyl-3-(3-(trifluoromethyl)-5,6,7,8-tetrahydro-1,6-naphthyridine-6-carbonyl)pyrrolidin-1-yl)methyl)-3-methylbenzo[d]oxazol-2(3H)-one] is under 0.2 µM; for `Cn1c(=O)oc2ccc(CN3CCC(CC#N)(C(=O)N4CCc5ncc(C(F)(F)F)cc5C4)C3)cc21` (stereo not shown) [Example 48, 2-(1-((3-methyl-2-oxo-2,3-dihydrobenzo[d]oxazol-5-yl)methyl)-3-(3-(trifluoromethyl)-5,6,7,8-tetrahydro-1,6-naphthyridine-6-carbonyl)pyrrolidin-3-yl)acetonitrile] it is 0.2 to 1 µM.
The figure for `Cn1c(=O)oc2ccc(CN3CCC(CO)(C(=O)N4CCc5ncc(C(F)(F)F)cc5C4)C3)cc21` (stereo not shown) [Example 49, 5-((3-(Hydroxymethyl)-3-(3-(trifluoromethyl)-5,6,7,8-tetrahydro-1,6-naphthyridine-6-carbonyl)pyrrolidin-1-yl)methyl)-3-methylbenzo[d]oxazol-2(3H)-one] is over 1 µM; for `CC(C)CC1(C(=O)N2CCc3ncc(C(F)(F)F)cc3C2)CCN(Cc2ccc3c(c2)sc(=O)n3C)CC1` [Example 58, 6-((4-Isobutyl-4-(3-(trifluoromethyl)-5,6,7,8-tetrahydro-1,6-naphthyridine-6-carbonyl)piperidin-1-yl)methyl)-3-methylbenzo[d]thiazol-2(3H)-one] it is over 1 µM.
